Molecular target: T1, PPARδ-RXRα heterodimer (Homo sapiens, UniProt Q03181)
T1 sequence (Q03181 1-441): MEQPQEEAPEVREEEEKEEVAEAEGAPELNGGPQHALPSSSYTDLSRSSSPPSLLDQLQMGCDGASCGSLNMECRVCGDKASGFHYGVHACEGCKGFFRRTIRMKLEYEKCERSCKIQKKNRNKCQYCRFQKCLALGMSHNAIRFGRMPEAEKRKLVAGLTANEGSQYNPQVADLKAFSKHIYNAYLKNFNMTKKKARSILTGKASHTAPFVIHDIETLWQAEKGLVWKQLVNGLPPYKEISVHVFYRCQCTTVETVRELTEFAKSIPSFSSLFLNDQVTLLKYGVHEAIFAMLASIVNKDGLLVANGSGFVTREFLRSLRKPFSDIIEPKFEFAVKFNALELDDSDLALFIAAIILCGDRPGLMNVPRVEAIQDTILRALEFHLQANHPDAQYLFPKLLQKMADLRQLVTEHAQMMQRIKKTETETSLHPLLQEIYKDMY
T1 sequence (P19793 1-462 partner): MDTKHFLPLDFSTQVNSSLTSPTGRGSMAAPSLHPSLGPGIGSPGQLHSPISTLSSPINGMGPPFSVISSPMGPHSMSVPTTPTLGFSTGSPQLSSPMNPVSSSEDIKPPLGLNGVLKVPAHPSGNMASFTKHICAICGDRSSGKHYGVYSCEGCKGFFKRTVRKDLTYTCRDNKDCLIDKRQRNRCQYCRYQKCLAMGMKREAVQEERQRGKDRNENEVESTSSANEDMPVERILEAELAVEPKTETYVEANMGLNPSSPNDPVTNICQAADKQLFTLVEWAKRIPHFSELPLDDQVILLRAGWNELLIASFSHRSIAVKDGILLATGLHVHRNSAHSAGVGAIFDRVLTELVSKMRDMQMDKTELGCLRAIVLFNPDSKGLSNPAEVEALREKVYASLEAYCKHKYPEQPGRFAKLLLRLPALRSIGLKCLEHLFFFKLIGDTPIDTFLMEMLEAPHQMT
Assay: PPARδ-RXRα heterodimer ligand activity (luciferase reporter, PPARδ:RXRα:4ERPP/CHO-K1 cells)
Assay type: cell-based
Set-up: expressed in transfected cells
Conditions: concentration for 50% of maximum fold induction of luciferase, 48 hrs
Procedure: PPARδ-RXRα Heterodimer Ligand Activity
PPARδ:RXRα:4ERPP/CHO-K1 cells obtained in Reference Example 5a were cultured in HAM F12 medium (produced by NISSUI SEIYAKU) containing 10% fetal bovine serum (produced by Life Technologies, Inc., USA) and then seeded in a 96-well white plate (produced by Corning Costar Corporation, USA) at the density of 2×10^4 cells/well, and cultured in a CO2 gas incubator at 37° C. overnight.
After washing the 96 well white plate with PBS (Phosphate-buffered saline), 90 μl of HAM F12 medium containing 0.1% fatty acid-free bovine serum albumin (BSA) and 10 μl of test compound were added, and the cells were cultured in a CO2 gas incubator at 37° C. for 48 hrs. After removing the medium, 40 μl of PicaGene 7.5 (produced by Wako Pure Chemical Industries, Ltd.) was added. After stirring, the luciferase activity was determined using Lumistar (produced by BMG Labtechnologies GmbH, Germany).
The fold induction was calculated from the luciferase activity of each test compound when the luciferase activity in the non-treatment group is taken as 1. The values of the test compound concentration and the fold induction were analyzed using PRISM 2.01 (produced by GraphPad Software Inc. USA) to calculate the EC50 values, the effective concentration of a test compound for 50% of the maximum fold induction. […]

EC50: 2100 nM
Structure (SMILES): Cc1oc(-c2ccccc2)nc1COc1ccc(Sc2nc(-c3ccccc3)c(CCC(=O)O)o2)cc1 [Example 10, 3-[2-[4-(5-methyl-2-phenyl-4-oxazolylmethoxy)phenylthio]-4-phenyl-5-oxazolyl]propionic acid]
